{
  "source": "patent US20260151350A1",
  "about": "“COMPOSITIONS AND METHODS FOR TARGETED DELIVERY TO CELLS” (The Board of Regents of The University of Texas System, priority 2021, published 2026)",
  "tested_on": "C57BL/6 mice",
  "assay": "Cy5-mRNA biodistribution, ex vivo organ fluorescence after IV injection",
  "format": "in vivo, mouse",
  "conditions": "0.5 mg/kg mRNA IV, 6 h",
  "protocol": "FIG. 1B illustrates ex vivo fluorescence of Cy5-labelled mRNA in major organs extracted from C57BL/6 mice intravenously injected with example SORT LNPs (as described herein) that incorporate increasing percentages of different SORT molecules (0.5 mg/kg mRNA/body weight, 6 h).\nFIG. 1C illustrates relative average Cy5 fluorescence measured in the liver, lung, and spleen as a function of SORT molecule percent inclusion (0.5 mg/kg mRNA/body weight, n=2). SORT molecules promote mRNA biodistribution to target organs. Data are shown as mean±s.e.m.\nWe first investigated the biodistribution of mRNA encapsulated in example SORT LNPs to determine whether there was a correlation between the organs in which the SORT LNPs accumulated and their tissue-specific mRNA activity. We formulated example liver, lung, and spleen SORT LNPs encapsulating Cy5-labelled mRNA following the identical protocols and formulation parameters used in our previous publications. We administered each LNP IV to C57BL/6 mice and tracked the in vivo biodistribution of the Cy5-mRNA using fluorescence imaging. Six hours post-injection, organs were excised and imaged ex vivo (FIG. 1B). The average fluorescence produced by the liver, spleen, and lungs was quantified (FIG. 1C). […] Importantly, these tracking studies quantify where the example SORT LNPs biodistribute but not where mRNA is translated to protein (functional delivery).",
  "data": [
    {"smiles": "CCCCCCCC/C=C\\CCCCCCCC(=O)OCC(CN(C)C)OC(=O)CCCCCCC/C=C\\CCCCCCCC", "note": "(stereo not shown) [DODAP, 1,2-Dioleoyl-3-dimethylammonium-propane]", "values": [
      {"measurement": "SORT molecule inclusion giving optimal liver biodistribution", "value": 20, "unit": "%"}
    ]}
  ]
}
